According to patent publication US10695347B2, “Pyrimidine derivative and use thereof” (Hubei Bio-Pharmaceutical Industrial Technological Institute …, priority 2015, dated 2020):
Like-named read-outs stand apart in the source and are kept apart here.

Tests used:
ALK = ALK (Homo sapiens (Human), UniProt Q9UM73); experiment: Inhibition of ALK kinase activity (Caliper mobility shift); format: biochemical
Experimental: (§1) Inhibition of Compound I Against ALK Kinase Activity
(§2) • I. Preparation of 1× kinase buffer and stop buffer
(§3) 1) 1× Kinase Buffer • 50 mM HEPES. pH 7.5 • 0.0015% Brij-35 • 10 mM MgCl2 • 2 mM DTT • 2) stop buffer • 100 mM HEPES, pH 7.5 • 0.015% Brij-35 • 0.2% Coating Reagent #3 • 50 mM EDTA
(§4) 2. Prepare a Compound Solution to be Tested • Step 2.1 Dilute the compound to 50× of the final desired highest inhibitor concentration in reaction by 100% DMSO. Transfer 100 μl of this compound dilution to a well in a 96-well plate. For example, if desired highest inhibitor concentration is 1 μM, then prepare 50 μM of compound DMSO solution in this step.
(§5) Step 2.2 Further dilute said compound dilution by 3-fold in series, thus obtain 10 concentrations.
(§6) Step 2.3 Add 100 μl of 100% DMSO to two empty wells for no compound control and no enzyme control in the same 96-well plate. Mark the plate as source plate.
(§7) Step 2.4 Prepare an intermediate plate
(§8) Transfer 10 μl of each compound from the source plate to a new 96-well plate as the intermediate plate.
(§9) Add 90 μl of 1× kinase buffer to each well of the intermediate plate. Mix the compounds in the intermediate plate for 10 min on a shaker.
(§10) Transfer 5 μl of each well from the 96-well intermediate plate to a 384-well plate in duplicate. For example, A1 of the 96-well plate is transferred to A1 and A2 of the 384-well plate. A2 of the 96-well plate is transferred to A3 and A4 of the 384-well plate, and so on.
(§11) 4.1 Prepare a 2.5× kinase solution
(§12) Add kinase in 1× kinase base buffer, thus obtain the 2.5× kinase solution.
(§13) 4.2 Prepare a 2.5× peptide solution
(§14) 4.3 In each well of the assay plate obtained in step 3, there was 5 μL of the compound in 10% DMSO.
(§15) 4.4 Transfer the 2.5× enzyme solution to the assay plate.
(§16) 4.5 Incubate at room temperature for 10 min.
(§17) 4.6 Transfer the 2.5× peptide solution to the assay plate.
(§18) 4.7 Kinase reaction and stop
(§19) Incubate at 28° C. for 20 min.
(§20) Add 25 μl of stop buffer to stop reaction.
(§21) Conversion rate of the kinase was read via the Caliper.
(§22) 6.1 Copy conversion data from Caliper program.
(§23) 6.2 Convert conversion values to inhibition values with the following formula: Percent inhibition=(max−conversion)/(max−min)*100
(§24) where “max” stands for DMSO control; and “min” stands for low control.
(§25) 6.3 Fit the data in XLfit excel add-in version 4.3.1 and obtain IC50 values according to the following formula: Y=Bottom+(Top−Bottom)/[…].

ALK L1196M = ALK L1196M (Homo sapiens (Human), UniProt Q9UM73, L1196M); experiment: Inhibition of ALK L1196M kinase activity (Caliper mobility shift); format: biochemical
Experimental: as §1, §2, §3, §4, §5, §6, §7, §8, §9, §10, §11, §12, §13, §14, §15, §16, §17, §18, §19, §20, §21, §22, §23, §24, §25

Karpas299 cells = experiment: Suppression of Karpas299 cell proliferation (CellTiter-Glo); format: cell-based; details: 3 days incubation, read-out: Inhibition activity on Karpas299 cells IC50
Experimental: (§26) As the amount of ATP can indicate the number of living cells directly, the living cells in culture are able to be quantified by determining the ATP level. In our experiment, we use a living-cell testing kit to quantify the living cells, which utilizes UltraGlow luciferase to generate a stable glow signal in the presence of ATP which is produced by metabolism of living cells, such as respiration. Specifically, a reagent CellTiter-Glo™ was added into cell culture media, and then the luminescent intensity was determined to measure proliferation of cells, as the luminescent intensity is in direct proportion to the ATP level which correlates positively to the number of living cells. The test plate was tested with the Envision (PE).
Cell media: RPMI-1640 medium, fetal calf serum (FCS), antibiotics (Penicillin-Streptomycin)
Assay reagent: Cell Viability Assay Kit CellTiter-Glo
(§27) Others: a 96-well plate, a 384-well plate, DMSO
(§28) Step 3.1 Culturing test cells
Karpas 299 cells were plated into a black 384-well plate, with 2500 cells in 45 μl cell suspension per well. The plate was placed in a carbon dioxide incubator overnight.
(§29) Step 3.2 Preparation of the compounds to be tested
Each compound to be tested was dissolved in DMSO at 10 mM as the stock solution, which was left in a nitrogen-gas tank for storage.
After dilution of 10 μL stock solution (10 mM) into 2.5 mM as a starting working solution, 10 concentrations of the working solutions from 5 μM to 0.25 nM were obtained in duplicate by further dilution in 3-fold series with ECHO.
Step 3.3 Mixing the compound with the test cells
To each well of a new 96-well plate were added 49 μl medium and 1 μl of the compounds to be tested at individual working concentrations (10 concentrations in total). After oscillation,
5 μl of mixture in each well of the 96-well plate was transferred into corresponding wells in the 384-well plate in the step 3.1. The 384-well plate was incubated in the carbon dioxide incubator for 3 days.
To each well of the 384-well plate was added […] reagent Promega CellTiter-Glo. and incubated at room temperature for 10 minutes to stabilize the luminescence signal. The results were read with the PerkinElmer Envision Multi-mode Plate Reader.

Ba/F3 EML4-ALK cells = experiment: Suppression of Ba/F3 EML4-ALK cell proliferation (CellTiter-Glo); format: cell-based; details: 3 days incubation
From the text: Cell media: RPMI-1640 medium, fetal calf serum (FCS), antibiotics (Penicillin-Streptomycin), IL-3, puromycin
Cell line: Ba/F3 EML4-ALK
Assay reagent: Cell Viability Assay Kit Celliter-Glo
as §27
as §26, with “in medium” for “in culture”, “a cell viability assay” for “a living-cell testing”, “was assayed by” for “was tested with”
as §28
Ba/F3 EML4-ALK cells were planted into a 384-well plate, with almost 300 cells per well. The plate was placed in a carbon dioxide incubator overnight.
as §29
10 concentrations of the working solutions were obtained in duplicate by dilution in 3-fold series with BRAVO.
Step 3.3 Mixing the compound to be tested with the test cells
The compounds to be tested at individual working concentrations were transferred into corresponding wells in the 384-well plate in the step 3.1, with 5 μM as the initial working concentration, and then the 384-well plate was incubated in the carbon dioxide incubator for 3 days.
To each well of the 384-well plate was added the reagent Promega CellTiter-Glo, and incubated at room temperature for 10 minutes to stabilize the luminescence signal. The results were read by the PerkinElmer Envision Multi-mode Plate Reader.

ALK-positive NSCLC = details: 88 patients with ALK-positive NSCLCs who had undergone Crizotinib therapy, early clinical trial; cited from earlier work

Sequence of ALK (Q9UM73 19-1620): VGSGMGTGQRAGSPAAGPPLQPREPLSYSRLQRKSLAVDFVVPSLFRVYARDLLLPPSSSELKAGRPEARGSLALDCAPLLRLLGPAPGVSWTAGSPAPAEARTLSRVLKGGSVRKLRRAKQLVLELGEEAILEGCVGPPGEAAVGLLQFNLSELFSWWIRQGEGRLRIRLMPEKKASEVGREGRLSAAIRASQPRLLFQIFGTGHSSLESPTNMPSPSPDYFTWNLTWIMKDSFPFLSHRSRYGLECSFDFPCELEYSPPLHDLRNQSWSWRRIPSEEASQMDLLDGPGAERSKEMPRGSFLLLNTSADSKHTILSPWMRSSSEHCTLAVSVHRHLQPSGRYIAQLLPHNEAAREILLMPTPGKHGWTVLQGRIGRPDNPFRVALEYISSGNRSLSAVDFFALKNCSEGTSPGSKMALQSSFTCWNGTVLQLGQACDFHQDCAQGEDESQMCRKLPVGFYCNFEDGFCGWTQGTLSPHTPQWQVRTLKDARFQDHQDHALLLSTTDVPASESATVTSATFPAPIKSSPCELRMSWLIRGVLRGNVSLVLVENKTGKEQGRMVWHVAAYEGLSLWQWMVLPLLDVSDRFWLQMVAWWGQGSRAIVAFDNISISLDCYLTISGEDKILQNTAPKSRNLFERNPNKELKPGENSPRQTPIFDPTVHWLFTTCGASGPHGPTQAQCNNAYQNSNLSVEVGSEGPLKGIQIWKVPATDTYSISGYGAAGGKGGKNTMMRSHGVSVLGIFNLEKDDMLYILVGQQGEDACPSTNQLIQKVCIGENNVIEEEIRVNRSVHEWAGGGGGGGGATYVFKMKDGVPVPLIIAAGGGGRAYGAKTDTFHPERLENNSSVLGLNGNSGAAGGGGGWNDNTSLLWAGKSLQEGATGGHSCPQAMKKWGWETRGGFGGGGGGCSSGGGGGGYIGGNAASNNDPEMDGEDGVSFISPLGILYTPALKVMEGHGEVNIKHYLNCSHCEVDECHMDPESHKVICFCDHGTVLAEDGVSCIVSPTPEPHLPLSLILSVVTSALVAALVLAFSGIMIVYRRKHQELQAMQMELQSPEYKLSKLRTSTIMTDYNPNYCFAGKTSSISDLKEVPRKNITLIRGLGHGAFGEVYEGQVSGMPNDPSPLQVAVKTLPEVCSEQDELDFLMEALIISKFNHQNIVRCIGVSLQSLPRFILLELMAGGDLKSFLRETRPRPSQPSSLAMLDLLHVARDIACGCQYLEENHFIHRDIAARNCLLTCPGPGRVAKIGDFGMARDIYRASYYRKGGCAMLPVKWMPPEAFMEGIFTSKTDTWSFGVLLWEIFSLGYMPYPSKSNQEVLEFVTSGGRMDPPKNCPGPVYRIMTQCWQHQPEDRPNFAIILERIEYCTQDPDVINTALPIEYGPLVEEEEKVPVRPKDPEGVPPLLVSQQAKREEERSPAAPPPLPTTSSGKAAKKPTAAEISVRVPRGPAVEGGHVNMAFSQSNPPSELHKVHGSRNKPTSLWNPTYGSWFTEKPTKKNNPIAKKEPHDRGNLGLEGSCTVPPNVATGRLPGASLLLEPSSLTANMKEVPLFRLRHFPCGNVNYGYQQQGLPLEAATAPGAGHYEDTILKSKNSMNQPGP
Sequence of ALK L1196M (Q9UM73 19-1620 L1196M): as the sequence (Q9UM73 19-1620) above, with L1178M counted along it

Row | SMILES | IC50 (ALK) | IC50 (ALK L1196M) | IC50 (Karpas299 cells) | IC50 (Ba/F3 EML4-ALK cells) | IC50 (Karpas299 cells; Homo sapiens, KARPAS-299, 72 h) | IC50 (Ba/F3 EML4-ALK cells; Ba/F3 EML4-ALK, 72 h) | response rate (ALK-positive NSCLC)
1 | COc1cc(CN2CCC(N(C)C)CC2)ccc1Nc1ncc(Cl)c(Nc2ccccc2S(=O)(=O)C(C)C)n1 [Compound I-110] | 1 to 10 nM | 1 to 10 nM | < 50 nM | < 20 nM |  |  | 
2 | COc1cc(N2CCC(N(C)C)CC2)ccc1Nc1ncc(OC(F)F)c(Nc2ccccc2S(=O)(=O)C(C)C)n1 [Compound I-111, 5-(difluoromethoxy)-N^2-(4-(4-(dimethylamino)piperidin-1-yl)-2-methoxyphenyl)-N^4-(2-(isopropylsulfonyl)phenyl) pyrimidine-2,4-diamine] | < 1 nM | < 1 nM |  |  | < 50 nM | < 20 nM | 
3 | COc1cc(N2CCC(N(C)C)CC2)c(C)cc1Nc1ncc(OC(F)F)c(Nc2ccccc2S(=O)(=O)C(C)C)n1 [Compound I-112, 5-(difluoromethoxy)-N^2-(4-(4-(dimethylamino)piperidin-1-yl)-2-methoxy-5-methylphenyl)-N^4-(2-(isopropylsulfonyl)phenyl) pyrimidine-2,4-diamine] | < 1 nM | < 1 nM |  |  | < 50 nM | < 20 nM | 
4 | CC(C)Oc1cc(N2CCC(N(C)C)CC2)ccc1Nc1ncc(OC(F)F)c(Nc2ccccc2S(=O)(=O)C(C)C)n1 [Compound I-113, 5-(difluoromethoxy)-N^2-(4-(4-(dimethylamino)piperidin-1-yl)-2-isopropoxyphenyl)-N^4-(2-(isopropylsulfonyl)phenyl) pyrimidine-2,4-diamine] | < 1 nM | < 1 nM |  |  | < 50 nM | < 20 nM | 
5 | COc1cc(N2CCN(C(C)C)CC2)c(C)cc1Nc1ncc(OC(F)F)c(Nc2ccccc2S(=O)(=O)C(C)C)n1 [Compound I-115, 5-(difluoromethoxy)-N^2-(4-(4-isopropylpiperazin-1-yl)-2-methoxy-5-methylphenyl)-N^4-(2-(isopropylsulfonyl)phenyl) pyrimidine-2,4-diamine] | < 1 nM | < 1 nM | < 50 nM | < 20 nM |  |  | 
6 | Cc1cc(Nc2ncc(Cl)c(Nc3ccccc3S(=O)(=O)C(C)C)n2)c(OC(C)C)cc1C1CCNCC1 [LDK378, Ceritinib] |  |  |  |  |  |  | 80%
